The source of these data is patent US9487470B2, “4-((substituted phenyl) difluoromethyl) phenoxy carboxylic acid derivative, and preparation method and uses thereof” (Zhejiang Hisun Pharmaceutical Co., Ltd., priority 2012, dated 2016).

Data set [1] in a line: Solubility in water (remark on the test drugs). The format is physicochemical. The conditions noted are these: formulated with 20% solutol.
The subject of data set [2] is hyperlipoidemia model of Goldenhamsters (blood plasma TC, TG, HDL-C, LDL-C). The data set can be described thus: Pharmacodynamic test group 3: effects on blood lipid levels of Goldenhamsters in a hyperlipoidemia model. The format is in vivo. Particulars: for HDL-C, after administration / LDL-C, after administration / TC, after administration / TG, after administration: 40 mg/kg intragastric, 1 week, high-lipid feed continued, asterisks = P vs before administration; for HDL-C, after administration / LDL-C, after administration / TC, after administration / TG, after administration / HDL-C, before administration / LDL-C, before administration / TC, before administration / TG, before administration: blood plasma, x±s; for effect on HDL-C, in comparison with the results before administration (in words) / effect on LDL-C, in comparison with the results before administration (in words) / effect on TC, in comparison with the results before administration (in words) / effect on TG, in comparison with the results before administration (in words): t test after vs before administration; for HDL-C, before administration / LDL-C, before administration / TC, before administration / TG, before administration: baseline of the group before administration, high-lipid feed 2 weeks, 6 animals. The text has this: Animals: 120 male Goldenhamsters, aged 8 weeks, body weight 80-100 g, provided by Vital River Laboratories, Beijing.
Kits: The kits for total cholesterol (TC), triglyceride (TG), and high density lipoprotein cholesterol (HDL-C) were provided by SYSMEX, and the kits for low density lipoprotein cholesterol (LDL-C) were provided by Shanghai Kehua Bio-engineering Co., Ltd.
Apparatus: SYSMEX Automatic Biochemistry Analyzer, Bechman centrifuge, Setoris balance.
The animals were acclimatized and fed for 1 week, ad lib, light cycle was 10 h/14 h, and then feeds with high lipid content were fed to the animals (formulation: 0.3% cholesterol, 20% palm oil, and 79.7% basic feeds). The animals were fed for 2 weeks, and were fasted at 4:00 pm of the 14th day (fasted for 16 h). At the 15th day, the animals were anaesthetized with ethyl ether, weighted, and then 0.5 ml blood was collected from vena orbitalis posterior. The blood was anticoagulated with heparin, and was centrifugated at 5000 rpm for 10 min. The blood plasma was taken, and the levels of TC, TG, HDL-C, and LDL-C in blood plasma were determined using automatic biochemistry analyzer.
During the administration, feeds with high lipid content were continuously fed to the animals. The animals were fed for 1 week, and were fasted at 4:00 pm of the 7th day. At the 8th day, the animals were anaesthetized with ethyl ether, weighted, and then 0.5 ml blood was collected from vena orbitalis posterior. The blood was anticoagulated with heparin, and was centrifugated at 5000 rpm for 10 min. The blood plasma was taken, and the levels of TC, TG, HDL-C, and LDL-C in blood plasma were determined using automatic biochemistry analyzer.
The results were represented by x±s, and t test was employed for comparing the results obtained before and after administration.

Data set [3] shares this test system. The data set can be described thus: Pharmacological test group 1: effects on blood lipid levels of Goldenhamsters in a hyperlipoidemia model. It is filed as in vivo. The source says: Animals: 134 male Goldenhamsters, aged 8 weeks, body weight 80-100 g, provided by Vital River Laboratories, Beijing. […] Kits: The kits for total cholesterol (TC), triglyceride (TG), and high density lipoprotein cholesterol (HDL-C) were provided by SYSMEX, and the kits for low density lipoprotein cholesterol (LDL-C) were provided by Shanghai Kehua Bio-engineering Co., Ltd. Apparatus: SYSMEX Automatic Biochemistry Analyzer, Bechman centrifuge, Setoris balance. The animals were acclimatized and fed for 1 week, ad lib, light cycle was 10 h/14 h, and then feeds with high lipid content were fed to the animals (formulation: 0.3% cholesterol, 20% palm oil, and 79.7% basic feeds). The animals were fed for 10 days, and were fasted at 4:00 pm on the 10th day (fasted for 16 h). On the 11th day, the animals were anaesthetized with ethyl ether, weighted, and then 0.5 ml blood was collected from vena orbitalis posterior. The blood was anticoagulated with heparin, and was centrifugated at 5000 rpm for 10 min. The blood plasma was taken, and the levels of TC, TG, HDL-C, and LDL-C in blood plasma were determined using automatic biochemistry analyzer. The animals were acclimatized and fed for 1 week, ad lib, light cycle was 10 h/14 h, and then feeds with high lipid content were fed to the animals (formulation: 0.3% cholesterol, 20% palm oil, and 79.7% basic feeds). The animals were fed for 2 weeks, and were fasted at 4:00 pm on the […] (fasted for 16 h). On the 22nd day, the animals were anaesthetized with ethyl ether, weighted, and then 0.5 ml blood was collected from vena orbitalis posterior. The blood was anticoagulated with heparin, and was centrifugated at 5000 rpm for 10 min. The blood plasma was taken, and the levels of TC, TG, HDL-C, and LDL-C in blood plasma were determined using automatic biochemistry analyzer. […] During the administration, feeds with high lipid content were continuously fed to the animals. The animals were fed for 1 week, and were fasted at 4:00 pm on the 7th day. On the 8th day, the animals were anaesthetized with ethyl ether, weighted, and then 0.5 ml blood was collected from vena orbitalis posterior. The blood was anticoagulated with heparin, and was centrifugated at 5000 rpm for 10 min. The blood plasma was taken, and the levels of TC, TG, HDL-C, and LDL-C in blood plasma were determined using automatic biochemistry analyzer. The results were represented by x±s, and t test was employed for comparing the results obtained before and after administration.

Where [4] appears, read: 40 mg/kg intragastric, 1 week, high-lipid feed continued, blood plasma, x±s, asterisks = P vs before administration.
Setting [5] is: 40 mg/kg, t test after vs before administration.

Each structure is given as a SMILES string.

Consider `CC(C)OC(=O)C(C)(C)Oc1ccc(C(F)(F)c2ccccc2)cc1` [HS003-008, Isopropyl 2-(4-(phenyldifluoromethyl)phenoxy)-2-methylpropionate], for which the solubility in water result in data set [1] is given as “insoluble”. In data set [2] (40 mg/kg), the “blood lipid-regulating effects (conclusion from table 4)” value (“blood lipid-regulating effects” for short) is “excellent blood lipid-regulating effects”; the “effect on HDL-C, in comparison with the results before administration (in words)” value is “increase”; the “effect on LDL-C, in comparison with the results before administration (in words)” value (shortened to “effect on LDL-C, in comparison”) is recorded as “significantly decrease”; the “effect on TC, in comparison with the results before administration (in words)” value was “significantly decrease”. Moreover, the “effect on TG, in comparison with the results before administration (in words)” value (“effect on TG, in comparison” for short) in data set [2] (40 mg/kg) is “significantly decrease”. Moreover, in data set [2], the “HDL-C, after administration” value came out at 3.4 ± 0.11; the “LDL-C, after administration” value was 2.11 ± 0.89; the “TC, after administration” value is 10.84 ± 1.83; the “TG, after administration” value worked out at 2.49 ± 0.99. Moreover, in data set [2], the “HDL-C, before administration” value was found to be 2.86 ± 0.14; the “LDL-C, before administration” value is on record as 3.18 ± 0.81; the “TC, before administration” value came out at 12.85 ± 2; the “TG, before administration” value amounted to 3.93 ± 1.09. Besides, in data set [3] (40 mg/kg), the “regulating effects on the levels of blood lipid (conclusion from table 2)” value was “tend to the effects of significantly decreasing TG, TC, and LDL-C”. In data set [3] (setting [4]), the “HDL-C, after administration” value is 3.46 ± 0.26; the “LDL-C, after administration” value is 1.0 ± 0.45; the “TC, after administration” value turned out to be 9.85 ± 1.48; the “TG, after administration” value is given as 1.22 ± 0.84. For the same compound, in data set [3] (setting [5]), the “effect on LDL-C, in comparison” value is recorded as “significantly decreases” and the “effect on TG, in comparison” value is recorded as “significantly decreases”.

In the case of `COC(=O)C(C)Oc1ccc(C(F)(F)c2ccc(Cl)cc2)cc1` (centres unmarked) [HS003-024, Methyl 2-(4-((4-chlorophenyl)difluoromethyl)phenoxy) propionate], the solubility in water result in data set [1] is “insoluble”. Besides, in data set [2] (40 mg/kg), the “blood lipid-regulating effects” value is “excellent blood lipid-regulating effects”; the “effect on LDL-C, in comparison” value is “significantly decreases”; the “effect on TC, in comparison with the results before administration (in words)” value was “significantly decreases”; the “effect on TG, in comparison” value was “significantly decreases”. For the same compound, in data set [2], the “HDL-C, after administration” value is 2.94 ± 0.41; the “LDL-C, after administration” value is reported as 1.64 ± 0.27; the “TC, after administration” value worked out at 7.64 ± 0.46; the “TG, after administration” value is given as 1.92 ± 0.38. In data set [2], the “HDL-C, before administration” value was found to be 2.76 ± 0.42; the “LDL-C, before administration” value worked out at 2.97 ± 0.98; the “TC, before administration” value was 12.47 ± 1.85; the “TG, before administration” value came to 3.96 ± 1.15. Besides, in data set [2] (40 mg/kg, fenofibrate 40 mg/kg), the “therapeutic effect compared with fenofibrate (conclusion from table 4)” value was “outstanding therapeutic effects, and are superior to fenofibrate”.

In the case of `COC(=O)C(CCO)Oc1ccc(C(F)(F)c2ccc(Cl)cc2)cc1` (centres unmarked) [HS003-031, methyl 2-(4-((4-chlorophenyl)difluoromethyl)phenoxy)-4-hydroxy-butyrate], in data set [1], the solubility in water entry is “insoluble”. In data set [2] (40 mg/kg), the “blood lipid-regulating effects” value was “excellent blood lipid-regulating effects”; the “effect on HDL-C, in comparison with the results before administration (in words)” value is on record as “significantly increases”; the “effect on LDL-C, in comparison” value is “significantly decreases”; the “effect on TG, in comparison” value is listed as “significantly decreases”. Besides, in data set [2], the “LDL-C, after administration” value was 1.94 ± 0.42; the “TC, after administration” value amounted to 11.44 ± 1.05; the “TG, after administration” value amounted to 1.89 ± 0.38; the “HDL-C, before administration” value stood at 2.82 ± 0.34. Further, in data set [2], the “LDL-C, before administration” value is 3.2 ± 0.83; the “TC, before administration” value was determined as 12.61 ± 1.66; the “TG, before administration” value is reported as 4.02 ± 1.33.
